# According to PubChem BioAssay AID518 (Sanford-Burnham Center for Chemical Genomics, 2006):
# Target: Alkaline phosphatase, tissue-nonspecific isozyme (Homo sapiens) (UniProt P05186)
# Assay: human TNAP enzyme inhibitors, biochemical, luminescent (AID 518)
# Details: purified TNAP enzyme, luminescent substrate readout
# Alkaline phosphatase, tissue-nonspecific isozyme (Homo sapiens), sequence (P05186 whole entry, looked up): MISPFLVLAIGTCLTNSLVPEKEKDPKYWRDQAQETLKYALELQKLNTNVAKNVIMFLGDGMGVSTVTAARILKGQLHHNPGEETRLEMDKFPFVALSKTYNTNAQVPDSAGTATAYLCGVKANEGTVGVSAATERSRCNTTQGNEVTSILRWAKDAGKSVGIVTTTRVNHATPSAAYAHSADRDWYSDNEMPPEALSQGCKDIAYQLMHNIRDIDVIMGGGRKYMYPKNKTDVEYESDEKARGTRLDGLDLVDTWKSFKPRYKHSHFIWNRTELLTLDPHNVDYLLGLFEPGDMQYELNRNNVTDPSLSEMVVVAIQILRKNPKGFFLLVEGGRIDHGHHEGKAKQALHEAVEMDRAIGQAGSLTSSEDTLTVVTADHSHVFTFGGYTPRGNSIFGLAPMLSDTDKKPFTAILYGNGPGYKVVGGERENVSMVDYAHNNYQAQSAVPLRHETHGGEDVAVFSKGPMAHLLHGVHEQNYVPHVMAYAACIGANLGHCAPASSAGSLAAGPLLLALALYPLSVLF
row,IC50,SMILES
1,1730 nM,C/C(N)=C(/C#N)C(=O)CSc1n[nH]c(-c2ccccc2Br)n1
2,5250 nM,COCc1[nH]nc2c1C(c1cc(OC)c(O)c(OC)c1)C(C#N)=C(N)O2 (stereo not drawn)
3,330 nM,O=C1C2CC=CCC2C(=O)N1c1n[nH]c(Cc2ccccc2)n1 (stereo not drawn)
